Laboratory results from the NIST ThermoML archive (doi:10.1016/j.fluid.2007.11.002).
Where “and” joins values, the source holds several entries; their conditions need not be identical. Identical values can stand only once. ± gives the expanded uncertainty stated by the source.

Key:
[1] = refractive index (Na D-line) (dimensionless); details: 298.15 K; 101.33 kPa; Liquid; Standard Abbe refractometry
[2] = Liquid, Ebulliometric method (Recirculating still)

## CCC(C)O (stereo not given) [butan-2-ol]
[1]
  refractive index: 1.3955 ± 0.0012
[2]; 343.15 K
  vapor or sublimation pressure: 29.86 ± 0.59 kPa
[2]; 363.15 K
  vapor or sublimation pressure: 70.25 ± 0.9 kPa
[2]
  Normal boiling temperature: 99.50 ± 0.22 °C

## CC(C)(C)O [2-methylpropan-2-ol]
[1]
  refractive index: 1.3823 ± 0.0012
[2]; 323.15 K
  vapor or sublimation pressure: 24.4 ± 0.48 kPa
[2]; 325.05 K
  vapor or sublimation pressure: 26.66 kPa
[2]; 333.15 K
  vapor or sublimation pressure: 39.06 ± 0.62 kPa
[2]; 340.05 K
  vapor or sublimation pressure: 53.33 kPa
[2]; 343.15 K
  vapor or sublimation pressure: 60.93 ± 0.89 kPa
[2]; 349.75 K
  vapor or sublimation pressure: 79.99 kPa
[2]; 353.15 K
  vapor or sublimation pressure: 92.26 ± 1.2 kPa
[2]; 355.55 K
  vapor or sublimation pressure: 101.33 kPa
[2]
  Normal boiling temperature: 82.40 ± 0.22 °C

## CC(C)CO [2-methyl-1-propanol]
[1]
  refractive index: 1.3939 ± 0.0012
[2]; 333.15 K
  vapor or sublimation pressure: 12.5 ± 0.34 kPa
[2]; 343.15 K
  vapor or sublimation pressure: 20.35 ± 0.4 kPa
[2]; 353.15 K
  vapor or sublimation pressure: 32.25 ± 0.55 kPa and 32.19 ± 0.5 kPa
[2]
  Normal boiling temperature: 107.90 ± 0.22 °C

## C1COCCO1 [1,4-dioxane]
[1]
  refractive index: 1.4205 ± 0.0012
[2]; 323.15 K
  vapor or sublimation pressure: 15.93 ± 0.36 kPa
[2]; 333.15 K
  vapor or sublimation pressure: 23.94 ± 0.44 kPa and 24 ± 0.42 kPa
[2]; 335.85 K
  vapor or sublimation pressure: 26.66 ± 0.44 kPa
[2]; 343.15 K
  vapor or sublimation pressure: 35.19 ± 0.59 kPa and 35.11 ± 0.54 kPa and 35.2 ± 0.54 kPa
[2]; 353.15 K
  vapor or sublimation pressure: 50.78 ± 0.8 kPa and 50.41 ± 0.68 kPa and 50.53 ± 0.68 kPa
[2]; 354.65 K
  vapor or sublimation pressure: 53.33 ± 0.8 kPa
[2]; 363.15 K
  vapor or sublimation pressure: 70.91 ± 0.88 kPa
[2]; 366.95 K
  vapor or sublimation pressure: 79.99 ± 1 kPa
[2]; 374.45 K
  vapor or sublimation pressure: 101.33 ± 1.1 kPa
[2]
  Normal boiling temperature: 101.30 ± 0.22 °C
